# Source: PMC4397911 (Bioorganic & medicinal chemistry letters, 2013)
# Experiments:
# [1] = biological target: NA from Virus H5N1 (soluble viral NA, N1) (Influenza A virus, UniProt Q6DPL2); assay: biochemical; conditions: IC50 inhibition of soluble NA from Virus H5N1
# [2] = biological target: NA from Virus H3N2 (soluble viral NA, N2) (Influenza A virus, UniProt Q91MA2); assay: biochemical; conditions: IC50 inhibition of soluble NA from Virus H3N2
# Chain of NA from Virus H3N2 (soluble viral NA, N2) (Q91MA2 31-469 limits assumed): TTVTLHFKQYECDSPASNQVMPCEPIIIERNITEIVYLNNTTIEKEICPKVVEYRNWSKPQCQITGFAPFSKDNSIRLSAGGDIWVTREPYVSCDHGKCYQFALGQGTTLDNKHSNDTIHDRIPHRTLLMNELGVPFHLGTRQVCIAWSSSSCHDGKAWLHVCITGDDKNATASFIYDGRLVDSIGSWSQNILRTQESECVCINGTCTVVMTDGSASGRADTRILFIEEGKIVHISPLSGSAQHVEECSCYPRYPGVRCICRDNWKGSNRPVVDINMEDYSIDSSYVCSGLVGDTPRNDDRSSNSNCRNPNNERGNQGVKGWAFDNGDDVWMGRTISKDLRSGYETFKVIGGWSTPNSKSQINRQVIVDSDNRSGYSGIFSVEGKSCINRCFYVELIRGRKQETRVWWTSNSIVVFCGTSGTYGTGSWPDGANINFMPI
# Chain of NA from Virus H5N1 (soluble viral NA, N1) (Q6DPL2 35-449 limits assumed): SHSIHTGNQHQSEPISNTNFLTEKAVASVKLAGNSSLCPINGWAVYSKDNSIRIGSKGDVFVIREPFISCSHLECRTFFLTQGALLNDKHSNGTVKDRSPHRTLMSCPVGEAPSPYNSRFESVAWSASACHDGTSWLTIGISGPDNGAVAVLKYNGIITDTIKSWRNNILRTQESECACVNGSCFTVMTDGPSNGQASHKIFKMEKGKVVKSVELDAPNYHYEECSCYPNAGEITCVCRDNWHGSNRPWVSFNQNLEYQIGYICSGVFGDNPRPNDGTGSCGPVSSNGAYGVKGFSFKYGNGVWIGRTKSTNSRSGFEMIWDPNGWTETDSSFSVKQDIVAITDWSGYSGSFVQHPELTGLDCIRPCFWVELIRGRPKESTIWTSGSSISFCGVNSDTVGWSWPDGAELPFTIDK
Structure (SMILES),IC50 [1] [µM],IC50 [2] [µM]
CC(=O)N[C@H]1[C@H]([C@H](O)[C@H](O)CO)OC(SCCOCCOCCOCCOCCOCCSC2(C(=O)O)C[C@H](N)[C@@H](NC(C)=O)[C@H]([C@H](O)[C@H](O)CO)O2)(C(=O)O)C[C@@H]1N (stereo partly shown) [HexaEG-SA],0.57 ± 0.06,11 ± 2
CC(=O)N[C@H]1[C@H]([C@H](O)[C@H](O)CO)OC(SCCCCCCS)(C(=O)O)C[C@@H]1N (stereo partly shown) [SA],60 to 180,60 to 180
CC(=O)N[C@H]1[C@H]([C@H](O)[C@H](O)CO)OC(SCCOCCOCCOCCOCCSC2(C(=O)O)C[C@H](N)[C@@H](NC(C)=O)[C@H]([C@H](O)[C@H](O)CO)O2)(C(=O)O)C[C@@H]1N (stereo partly shown) [PentaEG-SA],1.1 ± 0.1,10 ± 2
CC(=O)N[C@H]1[C@H]([C@H](O)[C@H](O)CO)OC(SCCCCCCS)(C(=O)O)C[C@@H]1NC(=N)N (stereo partly shown) [SG],0.1 ± 0.02,
